Structures are written as SMILES. Like-named read-outs stand apart in the source and are kept apart here.

The values that follow come from US4361570A (Istituto Luso Farmaco D'Italia S.p.A., priority 1980, dated 1982).

Series [1] concerns lacticacidaemia. The following applies: known effect of metformin; cited from earlier work.
The conditions of series [2]: pregnant rat.
For series [3], the system named is lacticacidaemia. Conditions: for lacticacidaemia, basal / lacticacidaemia, after 15 minutes / lacticacidaemia, after 10 minutes / lacticacidaemia, immediately after stress: 2300 mg in 250 ml venous infusion. As for the experimental part:
All the patients are being treated with insulin and are in a metabolic compensation.
The trials are performed on double-blind conditions. Each patient is subjected to an isometric stress test at 50% of its maximum ability for one minute.
The samples for measuring the lacticacidaemia are taken from the same arm performing the muscular stress.

The conditions of series [4]: 400 mg/kg/os, rats, six months.
For series [5] the following is noted: Rabbit, i.v.
The test system of series [6] is homogenized liver and brain. The following applies: in vitro, Warburg apparatus, French Pat. No. 6453 M; cited from earlier work.
For series [7] the following is noted: 920 mg/kg/i.m., dog.
For series [8] the following is noted: Rat.
For series [9] the following is noted: Mouse.
The test system of series [10] is maximal aerobic capacity; blood lactate. Description: Maximal aerobic capacity and blood lactate at work loads in trained non-athletic individuals.
The conditions of series [11]: rats.
For series [12], the system named is lacticacidaemia. Conditions: for lactate level: control animals 5.1±0.59 mM/l. As for the experimental part:
The resulting lactate levels are 2.9±0.8 mM/l with modality "A" and 1.37±0.01 mM/l with modality "B", respectively.
The control animals show a lacticacidaemia level of 5.1±0.59 mM/l.

The conditions of series [13]: pregnant rabbit.
For a further series, the system named is hyperlacticacidaemia. As to the kind of experiment: Lacticacidaemia in cyrrhotic patients having hyperlacticacidaemia (double blind). The following applies: venous 2300 mg in 250 ml, 25 cyrrhotic patients.

Regarding `CN(C)C(=N)N=C(N)N` [metformin], in the series on lacticacidaemia [1], the lacticacidosis in rat entry is “causes lacticacidosis”.
Turning to `Cc1ncc(CO)c(CO)c1O.O=C(O)CCC(=O)C(=O)O` [PAK], the Activity on gestation result was “does not cause any noxious effect in the pregnant female, on the gestation and on the embryo-fetal development” in [2] (46 mg/kg/i.m.); “does not cause any noxious effect in the pregnant female, on the gestation and on the embryo-fetal development” in series [2] (oral 1300 mg/kg); “does not cause any noxious effect in the pregnant female, on the gestation and on the embryo-fetal development” in [13] (46 mg/kg/i.m.); “does not cause any noxious effect in the pregnant female, on the gestation and on the embryo-fetal development” in series [13] (oral 1300 mg/kg). Also, the duration of effect result in the series on lacticacidaemia [3] (analysis of the variance) is “protracted in time”. Moreover, in the series with lacticacidaemia [3] (analysis of the variance), the “reduction of lacticacidaemia after stress” value was “faster with PAK”. Besides, the “increase of lacticacidaemia by stress with respect to physiological solution” value with lacticacidaemia [3] (analysis of the variance, p<0.01) is reported as “lower with respect to physiological solution”. The “lacticacidaemia, basal” value with lacticacidaemia [3] (sequence (a) physiological solution/PAK, physiological solution 0.88 ± 0.19) amounted to 0.94 ± 0.20; in the series on lacticacidaemia [3] (sequence (b) PAK/physiological solution, physiological solution 0.93 ± 0.19) it was 0.88 ± 0.16. In addition, the “lacticacidaemia, after 15 minutes” value turned out to be 1.18 ± 0.30 with lacticacidaemia [3] (sequence (a) physiological solution/PAK, physiological solution 1.54 ± 0.30) and 1.11 ± 0.29 in the series with lacticacidaemia [3] (sequence (b) PAK/physiological solution, physiological solution 1.25 ± 0.40). The “lacticacidaemia, after 10 minutes” value with lacticacidaemia [3] (sequence (a) physiological solution/PAK, physiological solution 1.73 ± 0.35) amounted to 1.60 ± 0.30; with lacticacidaemia [3] (sequence (b) PAK/physiological solution, physiological solution 1.43 ± 0.44) it was 1.30 ± 0.33. Besides, the “lacticacidaemia, immediately after stress” value is reported as 2.62 ± 0.38 with lacticacidaemia [3] (sequence (a) physiological solution/PAK, physiological solution 3.12 ± 0.46) and 2.03 ± 0.47 in the series on lacticacidaemia [3] (sequence (b) PAK/physiological solution, physiological solution 2.08 ± 0.49). In addition, in [4], the Chronic toxicity entry is “does not cause any collateral nor toxic effect in the various organs”. For the same compound, the LD50 in series [5] is recorded as 1050 mg/kg; in [8] (i.m.), 2329 mg/kg; in series [8] (i.p.), 1704 mg/kg; in series [8] (i.v.), 588 mg/kg; in series [8] (os), 4800 mg/kg; in series [9] (i.m.), 2472 mg/kg. Moreover, the LD50 in series [9] (i.p.) is given as 1590 mg/kg; in series [9] (i.v.) it was 496 mg/kg; in series [9] (os), 5600 mg/kg. Besides, the “oxygen consumption vs α-ketoglutaric acid or pyridoxine alone” value in series [6] is given as “markedly higher”. The Systemic tolerability result in [7], in series [11] (46 mg/kg/i.v.) and in [11] (460 mg/kg/i.m.) was “well tolerated” throughout. Further, the “effect on half time (t 1/2) of La disappearance from blood during recovery” value in series [10] (30 mg/kg) was “unaffected”. Moreover, the “increase of maximal aerobic capacity (VO2 max)” value in series [10] (30 mg/kg of body weight, p<0.005) is 6%. The “kinetics of the VO2 on-and-off responses” value in series [10] (30 mg/kg, onset and offset of a rectangular work load) was “not affected”. In addition, the “ΔLab, peak blood lactate concentration vs control group” value in series [10] (30 mg/kg, supermaximal running work load lasting 60 seconds, p<0.05) was -1.1 mmol·1^-1; in series [10] (30 mg/kg, supermaximal running work load lasting 132±4 seconds, p<0.01) it was less than 2.7 mmol·1^-1. The decrease of lacticacidaemia result in the series on lacticacidaemia [12] (modality "A" and modality "B", with metformin) is “notable decrease of lacticacidaemia”. Further, the lactate level stood at 2.9±0.8 mM/l with lacticacidaemia [12] (modality "A": PAK 25 mg/h venous infusion contemporaneously with metformin (300 mg/i.d.)) and 1.37±0.01 mM/l with lacticacidaemia [12] (modality "B": PAK 25 mg/h venous infusion three hours after metformin (300 mg/i.d.)). The “decrease in the formation of blood lactic acid” value in the series with blood lactic acid (2 g/100 kg of weight/day for 15 days, 5 trotters, trot) is “significant decrease”. In addition, the “basal lacticacidaemia after treatment” value in the series with blood lactic acid (2 g/100 kg/day for 15 days, before treatment 6.04 mg/100 ml) is 3.30 mg/100 ml. Moreover, in the series on blood lactic acid (2 g/100 kg/day for 15 days, before treatment 29.41 mg/100 ml), the “lacticacidaemia immediately after the stress, after treatment” value is on record as 15.94 mg/100 ml. Moreover, the “further increase of hyperlacticacidaemia” value in the series on hyperlacticacidaemia is recorded as “prevented its further increase”. The “reduction of hyperlacticacidaemia vs basal values and controls” value in the series with hyperlacticacidaemia (p<0.01) is recorded as “statistically significant (p<0.01) reduction”.
